Assays:
[1] = test system: U266 MM cells; assay: cells; conditions: Homo sapiens, U-266, 48 h
[2] = test system: mouse lymph node (LN) cells; assay: cells; conditions: Mus musculus, 48 h, read-out: IC50 (normal; lymph node cells)
Description: (§1) Additional details are provided in Supplemental Experimental Procedures.
(§2) automated system (Becton Dick inson) and analyzed with FlowJo.

[3] = test system: CD138+ cells from MM patients; assay: cells; conditions: Homo sapiens, 48 h, read-out: IC50 (MM; PCs (n = 8))
Description: as §1, §2

[4] = test system: human BMSCs; assay: cells; conditions: Homo sapiens, BMSC, 48 h, read-out: IC50 (normal; BMSCs)
Description: as §1, §2

[5] = test system: human PBMCs; assay: cells; conditions: Homo sapiens, PBMC, 48 h, read-out: IC50 (normal; PBMCs)
Description: as §1, §2

[6] = test system: mouse splenocytes; assay: cells; conditions: Mus musculus, Splenocyte, 48 h, read-out: IC50 (normal; splenocytes)
Description: as §1, §2

[7] = test system: CD138+ cells from WM patients; assay: cells; conditions: Homo sapiens, 48 h, read-out: IC50 (WM; PCs (n= 2))
Description: as §1, §2

[8] = test system: human mesenchymal stem cells (MSCs); assay: cells; conditions: Homo sapiens, Mesenchymal stem cells, 48 h, read-out: IC50 (normal; MCSs)
Description: as §1, §2

[9] = test system: KMS-12 MM cells; assay: [3H]thymidine incorporation; format: cell-based; conditions: Homo sapiens, single agent at 48 hr
Procedure: as §1
Cell Proliferation, Cell Death, and Apoptosis Assays
W allac Trilux Microbeta 3 β -counter (Perk inElmer). Values were expressed as the percentage of the […]
respective untreated cultures. […]
splitting them as necessary during the assays. […]
previously (Riccardi and Nicoletti, 2006).
Cells were then f ixed in 70% ice- cold ethanol for 16 hr, washed in PBS, and treated with ribonuclease A (50 μg/mL) f or 30 min at room temperature. Samples were f inally stained with PI (50 µg/mL) in 0.1% sodium citrate buffer for 2 to 4 hr at 4°C in the dark , and data were acquired using a FACSCalibur automated system (Becton Dick inson) and analyzed with FlowJo.
The viability of primary CD138 + cells f rom patients was assessed using trypan blue exclusion assays (Mauro et al., 2011; Arnold et al., 2008), perf ormed as described above. Cells were seeded […]
Cell viability in the treated cultures was expressed as the percentage of cell survival relative to the survival observed in the respective untreated cultures, represented as 100%. […]
The activities of DTP3 and bortezomib in the U266 and KMS-12 myeloma cell lines, both as single agents and in combination, were determined using [3H]thymidine incorporation assays, performed as described above in “Cell Prolif eration, Cell Death, and Apoptosis Assays”. […]

What does the source list for `CC(C)C[C@H](NC(=O)[C@H](Cc1ccccc1)NC(=O)c1cnccn1)B(O)O` [Bortezomib, reference compound]?
IC50 [1]: 6 nM; IC50 [2]: 91.1 nM; IC50 [3]: 8.7 ± 2.1 nM; IC50 [4]: 80 nM; IC50 [5]: 63.1 nM; IC50 [6]: 80 nM; IC50 [7]: 3.38 ± 2 nM; IC50 [8]: 79.4 nM; IC50 [9]: 6 nM

From publication PMC4197335, “Cancer-Selective Targeting of the NF-κB Survival Pathway with GADD45β/MKK7 Inhibitors” (Cancer Cell, 2014)
